Source: patent US7772245B2, “Inhibitors of histone deacetylase” (Miikana Therapeutics, Inc., priority 2005, dated 2010)

What was measured:
[1] = system: HDAC; test: In vitro fluorescent histone deacetylase assay (Biomol HDAC fluorescent activity kit, HeLa cell nuclear extract); type: biochemical; details: 100 μM compound; HeLa cell nuclear extract as source of HDAC activity; 50 μM substrate, 10 min at room temperature
Procedure: Histone deacetylase (HDAC) activity assays were performed using the HDAC fluorescent activity assay/drug discovery kit (Biomol Research Laboratories, Plymouth Meeting, Pa.) essentially according to the manufacturer's instructions. The included HeLa cell nuclear extract, which contains a mosaic of HDAC enzymes and other nuclear factors, was used as the source of HDAC activity. The final substrate concentration in the assay mixture was 50 μM. The reaction was allowed to proceed for 10 min at room temperature before stopping the reaction. Test compounds were prepared as 20 mM stock solutions in DMSO (Molecular Biology grade, Sigma-Aldrich Co., St. Louis, Mo.) and stored at −70° C. Serial dilutions of test compounds were prepared in assay buffer immediately prior to testing. DMSO was determined in a separate trial to have no significant effect on the activity of this assay at concentrations up to 5%; the final DMSO concentration in the wells was no more than 2% and therefore DMSO effects were safely neglected. Assays were performed in white polystyrene 96-well half-area assay plates (Corning, Corning, N.Y.) and measured on a Wallace 1420 fluorescent plate reader (Wallac Oy, Turku, Finland) with an excitation wavelength of 355 nm, an emission wavelength of 460 nm, and a 1 sec signal averaging time.

[2] = system: HCT116 cells; test: Whole cell cytotoxicity assay: Sulforhodamine B; type: cell-based; details: Homo sapiens, HCT-116; 100 μM compound; 48 hours incubation with drug; Sulforhodamine B staining; read-out: % Inhibition of HCT116 cell growth @ 100 μM
Procedure: [The source words this procedure for another cell line and reports this cell line under the same test.] The following procedure can be found on the Developmental Therapeutics Program NCl/NIH web site at http://dtp.nci.nih.gov/brancehes/btb/ivclsp.html. • 1. Human tumor cell lines of HT29, A549 and MCF7 are grown in DMEM containing 10% fetal bovine serum and 2 mM L-glutamine. Cells are plated in a 96 well plate at a density of 5000 cells per well in 100 μL of growth medium and incubated at 37° C., 5% CO2, for 24 hours prior to the addition of experimental compounds. • 2. Experimental drugs are solubilized in DMSO for a final concentration of 20 mM immediately prior to use. Drugs are further diluted in growth media for a total of nine drug concentrations and a growth control. At the 24 hour time point, one plate of cells is fixed in situ with TCA as a measurement of the cell population at time zero, or the time of drug addition. • 3. The plates are further incubated with drug for an additional 48 hours. • 4. The cells are fixed in situ by gently aspirating off the culture media and then adding 50 μL of ice cold 10% TCA per well and incubated at 4° C. for 60 minutes. The plates are washed with tap water five times and allowed to air dry for 5 minute. • 5. 50 μL of a 0.4% (w/v) Sulforhodamine B solution in 1% (v/v) acetic acid is added per well and incubated for 30 minutes at room temperature. • 6. Following staining, plates are washed five times with 1% acetic acid to remove any unbound dye and then allowed to air dry for 5 minutes. • 7. Stain is solubilized with 100 μL of 10 mM Tris pH 10.5 per well and placed on an orbital rotator for 5 minutes. • 8. Absorbance is read at 570 nm.

Compound	% Inhibition of HDAC @ 100 μM [1]	inhibition at 100 µM [2]
O=C(/C=C/c1ccc(CN2CCc3c([nH]c4ccccc34)C2)s1)NO [Example 3, (2E)-N-hydroxy-3-[5-(1,3,4,9-tetrahydro-2H-b-carbolin-2-ylmethyl)thien-2-yl]acrylamide]	97.9%	98.3%
O=C(NO)c1ccc(N2CCc3c([nH]c4ccccc34)C2)nc1 [Example 4, N-hydroxy-6-(1,3,4,9-tetrahydro-2H-b-carbolin-2-yl)nicotinamide]		98.5%
COc1cc2c(cc1OC)CN(c1ccc(C(=O)NO)cn1)CC2 [Example 5, 6-(6,7-dimethoxy-3,4-dihydroisoquinolin-2(1H)-yl)-N-hydroxynicotinamide]	99.7%	99.9%
O=C(NO)c1cnc(N2CCc3c([nH]c4ccccc34)C2)nc1 [Example 9, N-hydroxy-2-(1,3,4,9-tetrahydro-2H-b-carbolin-2-yl)pyrimidine-5-carboxamide]	99.9%	99.3%
COc1ccc2[nH]c3c(c2c1)CCN(c1ncc(C(=O)NO)cn1)C3 [Example 10, N-hydroxy-2-(6-methoxy-1,3,4,9-tetrahydro-2H-b-carbolin-2-yl)pyrimidine-5-carboxamide]	99.5%	98.4%
COc1cc2c(cc1OC)CN(c1ncc(C(=O)NO)cn1)CC2 [Example 11, 2-(6,7-dimethoxy-3,4-dihydroisoquinolin-2(1H)-yl)-N-hydroxypyrimidine-5-carboxamide]	99.8%	99%
O=C(NO)c1cnc(N2CCc3[nH]c4ccccc4c3C2)nc1 [Example 12, N-hydroxy-2-(1,3,4,5-tetrahydro-2H-pyrido[4,3-b]indol-2-yl)pyrimidine-5-carboxamide]	99.9%	98.7%
Cc1ccc2[nH]c3c(c2c1)CN(c1ncc(C(=O)NO)cn1)CC3 [Example 13, N-hydroxy-2-(8-methyl-1,3,4,5-tetrahydro-2H-pyrido[4,3-b]indol-2-yl)pyrimidine-5-carboxamide]	99.9%	99.1%
O=C(NO)c1cnc(N2CCc3[nH]c4ccc(Cl)cc4c3C2)nc1 [Example 14, 2-(8-chloro-1,3,4,5-tetrahydro-2H-pyrido[4,3-b]indol-2-yl)-N-hydroxypyrimidine-5-carboxamide]	99.9%	98.1%
O=C(NO)c1cnc(N2CCc3[nH]c4ccc(Br)cc4c3C2)nc1 [Example 15, 2-(8-bromo-1,3,4,5-tetrahydro-2H-pyrido[4,3-b]indol-2-yl)-N-hydroxypyrimidine-5-carboxamide]	99.8%	99%
O=C(NO)c1cnc(N2CCc3[nH]c4ccc(OC(F)(F)F)cc4c3C2)nc1 [Example 16, N-hydroxy-2-[8-(trifluoromethoxy)-1,3,4,5-tetrahydro-2H-pyrido[4,3-b]indol-2-yl]pyrimidine-5-carboxamide]	98.9%	99%
O=C(NO)c1ccc(N2CCc3c([nH]c4ccccc34)C2)cc1 [Example 18, N-hydroxy-4-(1,3,4,9-tetrahydro-2H-b-carbolin-2-yl)benzamide]		98.5%
O=C(NO)c1cnc(N2CCc3c([nH]c4ccccc34)C2)s1 [Example 19, N-hydroxy-2-(1,3,4,9-tetrahydro-2H-b-carbolin-2-yl)-1,3-thiazole-5-carboxamide]	97.6%	97.2%
O=C(/C=C/c1cnc(N2CCc3c([nH]c4ccccc34)C2)nc1)NO [Example 20, (2E)-N-hydroxy-3-[2-(1,3,4,9-tetrahydro-2H-b-carbolin-2-yl)pyrimidin-5-yl]acrylamide]	99.6%	98.2%
O=C(CCc1cnc(N2CCc3c([nH]c4ccccc34)C2)nc1)NO [Example 21, N-hydroxy-3-[2-(1,3,4,9-tetrahydro-2H-b-carbolin-2-yl)pyrimidin-5-yl]propanamide]	98.5%	94%
O=C(NO)c1cnc(N2CCc3[nH]c4ccc(-c5cccc(C(=O)N6CCCC6)c5)cc4c3C2)nc1 [Example 42, N-hydroxy-2-{8-[3-(pyrrolidin-1-ylcarbonyl)phenyl]-1,3,4,5-tetrahydro-2H-pyrido[4,3-b]indol-2-yl}pyrimidine-5-carboxamide]		88%
O=C(NO)c1cnc(N2CCc3[nH]c4ccc(-c5cccnc5)cc4c3C2)nc1 [Example 47, N-hydroxy-2-{8-(pyridin-3-yl)-1,3,4,5-tetrahydro-2H-pyrido[4,3-b]indol-2-yl}pyrimidine-5-carboxamide]		98.1%
CC(=O)Nc1ccc2[nH]c3c(c2c1)CN(c1ncc(C(=O)NO)cn1)CC3 [Example 77, N-hydroxy-2-(8-(N-acetamido)-1,3,4,5-tetrahydro-2H-pyrido[4,3-b]indol-2-yl)pyrimidine-5-carboxamide]		98.1%
CS(=O)(=O)Nc1cccc(-c2ccc3[nH]c4c(c3c2)CN(c2ncc(C(=O)NO)cn2)CC4)c1 [Example 88, N-hydroxy-2-{8-[3-(N-methylsulfonamido)phenyl]-1,3,4,5-tetrahydro-2H-pyrido[4,3-b]indol-2-yl}pyrimidine-5-carboxamide]		98.4%
CN(C)Cc1cccc(-c2ccc3[nH]c4c(c3c2)CN(c2ncc(C(=O)NO)cn2)CC4)c1 [Example 92, N-hydroxy-2-{8-[3-(N,N-dimethylaminomethyl)phenyl]-1,3,4,5-tetrahydro-2H-pyrido[4,3-b]indol-2-yl}pyrimidine-5-carboxamide]		98.9%
O=C(NO)c1cnc(N2CCc3[nH]c4ccc(-c5ccc(CN6CCCC6)cc5)cc4c3C2)nc1 [Example 103, N-hydroxy-2-{8-[4-(pyrrolidin-1-ylmethyl)phenyl]-1,3,4,5-tetrahydro-2H-pyrido[4,3-b]indol-2-yl}pyrimidine-5-carboxamide]		98.9%
O=C(NO)c1cnc(N2CCc3[nH]c4ccc(-c5ccc(CN6CCSCC6)cc5)cc4c3C2)nc1 [Example 105, N-hydroxy-2-{8-[4-(thiomorpholin-4-ylmethyl)phenyl]-1,3,4,5-tetrahydro-2H-pyrido[4,3-b]indol-2-yl}pyrimidine-5-carboxamide]		97%
O=C(NO)c1cnc(N2CCc3[nH]c4ccc(F)cc4c3C2)nc1 [Example 111, N-hydroxy-2-(8-fluoro-1,3,4,5-tetrahydro-2H-pyrido[4,3-b]indol-2-yl)pyrimidine-5-carboxamide]		97.7%
O=C(NO)c1cnc(N2CCc3[nH]c4ccccc4c3CC2)nc1 [Example 114, N-hydroxy-2-(1,4,5,6-tetrahydroazepino[4,5-b]indol-3(2H)-1-yl)pyrimidine-5-carboxamide]		99.3%
O=C(NO)c1cnc(N2CCc3[nH]c4ccc(F)cc4c3CC2)nc1 [Example 115, N-hydroxy-2-(9-fluoro-1,4,5,6-tetrahydroazepino[4,5-b]indol-3(2H)-1-yl)pyrimidine-5-carboxamide]		98.8%
O=C(NO)c1cnc(N2CCc3[nH]c4cc(-c5cccc(CN6CCCC6)c5)ccc4c3C2)nc1 [Example 121, N-hydroxy-2-{7-[3-(pyrrolidin-1-ylmethyl)phenyl]-1,3,4,5-tetrahydro-2H-pyrido[4,3-b]indol-2-yl}pyrimidine-5-carboxamide]		97.5%
